Results published in patent publication US7381572B2, “Reagents and procedures for multi-label high-specificity labeling” (Rutgers, The State University of New Jersey, priority 2004, dated 2008).
Like-named read-outs stand apart in the source and are kept apart here. No end group written: not given here.

How the values were obtained:
[1] = Multicolor, multisite labeling, pairs of peptides: Cy5 detection; type: binding; details: pair of G1^0 with P3, P4, P5 or P6; both probes present; 5, 10, 20 mM DTT
Procedure: (§1) Multicolor, multisite labeling was assessed in electrophoretic-mobility-shift assays. Pairs of tetracysteine-tagged peptides—one neutral tetracysteine-tagged peptide, and one negatively-charged tetracysteine-tagged peptide (the charge difference resulting in different electrophoretic mobilities on the gel, thus allowing the two tetracysteine-tagged peptides to be distinguished)—were analyzed. For each combination of probe and pair of tetracysteine-tagged peptides, three reactions were performed in parallel: one reaction at 5 mM DTT, one reaction at 10 mM DTT, and one reaction at 20 mM DTT. […] DTT (1 μl of 50 mM DTT for reactions at 5 mM DTT, 1 μl of 100 mM DTT for reactions at 10 mM DTT, and 1 μl of 200 mM DTT for reactions at 20 mM DTT) was added, and samples were incubated 30 min at 25° C.

[2] = Multicolor, multisite labeling, pairs of peptides: FlAsH detection; type: binding; details: pair of G1^0 with the named peptide; both probes present; 5, 10, 20 mM DTT
Procedure: as §1

[3] = Multicolor, multisite labeling of doubly-tetracysteine-tagged proteins (SARPs), crude lysate; type: binding, Escherichia coli; details: for FlAsH-Cy5 FRET within the resulting complex (SARP detection): excitation 488 nm, emission ≧680 nm; for co-labeling by FlAsH and Cy5-(SO3)2-(PAEDT)2: ~1 μM doubly-tagged protein
Procedure: Multicolor, multisite labeling of doubly-tetracysteine-tagged proteins—yielding self-assembled relay probes, SARPs—was assessed in electrophoretic-mobility-shift assays. DTT (1 μl of 125 mM solution) was added to 23 μl crude lysate containing doubly-tetracysteine-tagged protein (˜1 μM; Example 14.2), and samples were incubated 30 min at 25° C. Cy5-(SO3)2-(PAEDT)2 (Example 9.2; 0.5 μl of 1 mM solution in DMF) was added, and samples were incubated 20 min at 25° C. FlAsH (Griffin, et al. (2000) Methods Enzmol. 327, 565-578; 0.5 μl of 0.1 mM solution in DMF) was then added, and samples were further incubated 5 min at 25° C.

[4] = Tag-conjugate interaction found by the inventors: FlAsH-EDT2; type: binding
[5] = Tag-conjugate binding found by the inventors: Cy3 and Cy5 bis-propionamido-phenylarsine derivatives
tetracysteine peptide = details: initially non-fluorescent; Griffin, et al. Science (1998); cited from earlier work
[6] = Tag-conjugate interaction found by the inventors: Cy5 derivatives; type: binding
[7] = type: binding; details: excitation 488 nm, emission ≧680 nm
[8] = Tag-conjugate interaction found by the inventors: Cy3 derivatives; type: binding

In the case of “Ac-EWNCCPPPPCCN—CONH2 (Ac-EWNCCPPPPCCN-NH2; cysteine pairing not given here) [P4]”, the “labeling by Cy5-(SO3)2-(PAEDT)2 in a pair of peptides” value (“labeling … of peptides” for short) [1] is reported as “labeled” and the “FlAsH labeling as % of the level of labeling of G1^0” value (“FlAsH labeling as %” for short) [2] is reported as under 10%.

For “α-CCPPPCC—PPPPPPPPP—CCGCCN [α-SARP-P3/G1-PP9]”, the “specificity of co-labeling and FRET-dependent detection (other proteins labeled)” value [3] was “no other protein in the crude lysate was detectably labeled”, the “FlAsH-Cy5 FRET within the resulting complex (SARP detection)” value [3] was “participated in FlAsH-Cy5 FRET” and the “co-labeling by FlAsH and Cy5-(SO3)2-(PAEDT)2” value [3] was “co-labeled”.

In the case of “CCPPPCC (target sequence) [tetracysteine peptide tag of the form CC(P)nCC]”, the “interaction of tag with FlAsH-EDT2” value [4] is reported as “not interact substantially” and the “binding of tag to Cy3 and Cy5 (bis-sulfonato) bis-propionamido-phenylarsine derivatives” value (“binding of tag to Cy3 and Cy5” below) [5] is reported as “bind”.

With CCPGPCC the “interaction of tag with FlAsH-EDT2” value [4] was “not interact substantially” and the “binding of tag to Cy3 and Cy5” value [5] was “bind”.

For `O=C(O)c1ccccc1-c1c2ccc(=O)c([As]3SCCS3)c-2oc2c([As]3SCCS3)c(O)ccc12` [FlAsH-EDT2, 4′,5′-bis (1,3,2-dithioarsolan-2-yl)fluorescein], the “fluorescence on addition of a tetracysteine peptide to displace the EDT” value (tetracysteine peptide) is listed as “develops bright fluorescence”.

For CGPCCGPC [Ac—WNCGPCCGPCN—CONH2], the “binding of tag to Cy5 bis-sulfonato bis-propionamido-phenylarsine or Cy5 bis-propionamido-phenylarsine” value [6] was “bind” and the “interaction of tag with FlAsH-EDT2” value [4] was “do not interact substantially”.

With “CCPPPPPCC (target sequence) [tetracysteine peptide tag of the form CC(P)nCC]” the “interaction of tag with FlAsH-EDT2” value [4] was “not interact substantially” and the “binding of tag to Cy3 and Cy5” value [5] was “bind”.

In the case of “CCPPPPCC (target sequence) [tetracysteine peptide tag of the form CC(P)nCC]”, the “interaction of tag with FlAsH-EDT2” value [4] is reported as “not interact substantially” and the “binding of tag to Cy3 and Cy5” value [5] is reported as “bind”.

For “Ac-EWNCCPPPPPCCN—CONH2 (Ac-EWNCCPPPPPCCN-NH2; cysteine pairing not given here) [P5]”, the “labeling … of peptides” value [1] was “labeled” and the “FlAsH labeling as %” value [2] was under 10%.

With “Ac-EWNCCPPPPCCN-AEAAAKEAAAKEAAAKEAAAKA-NCCGCCN—CONH2 [SARP-P4/G1-HL4X]” the “FlAsH-Cy5 FRET within the resulting complex (SARP detection)” value [7] was “participated in FlAsH-Cy5 FRET”.

With “α-CCPPPPCC—PPPPPPPPP—CCGCCN [α-SARP-P4/G1-PP9]” the “specificity of co-labeling and FRET-dependent detection (other proteins labeled)” value [3] was “no other protein in the crude lysate was detectably labeled”, the “FlAsH-Cy5 FRET within the resulting complex (SARP detection)” value [3] was “participated in FlAsH-Cy5 FRET” and the “co-labeling by FlAsH and Cy5-(SO3)2-(PAEDT)2” value [3] was “co-labeled”.

In the case of “Ac-EWNCCPPPCCN—CONH2 (Ac-EWNCCPPPCCN-NH2; cysteine pairing not given here) [P3]”, the “labeling … of peptides” value [1] is reported as “labeled” and the “FlAsH labeling as %” value [2] is reported as under 10%.

With “Ac-EWNCCPPPPCCN—PPPPPPPPP—NCCGCCN—CONH2 [SARP-P4/G1-PP9]” the “FlAsH-Cy5 FRET within the resulting complex (SARP detection)” value [7] was “participated in FlAsH-Cy5 FRET”.

With “Ac-EWNCCPPPPCCN—PPPPPPPPPPPP—NCCGCCN—CONH2 [SARP-P4/G1-PP12]” the “FlAsH-Cy5 FRET within the resulting complex (SARP detection)” value [7] was “participated in FlAsH-Cy5 FRET”.

For “CCGPCC: tetracysteine peptide tag of the general form CCXXCC (target sequence)”, the “interaction of tag with Cy5 derivatives of conjugates according to Formula (I)” value [6] was “not interact, or interact less tightly” and the “interaction of tag with Cy3 derivatives of conjugates according to Formula (I)” value [8] was “interact tightly”.

In the case of “Ac-EWNCCPPPPPPCCN—CONH2 (Ac-EWNCCPPPPPPCCN-NH2; cysteine pairing not given here) [P6]”, the “labeling … of peptides” value [1] is reported as “labeled” and the “FlAsH labeling as %” value [2] is reported as under 10%.

For “CGCGCGC (not fully specified (N-terminus, C-terminus); cysteine pairing not given here) [Ac—WNCGCGCGCN—CONH2, tag CGCGCGC; tested as the set A peptide that holds it]”, the “binding of tag to Cy5 bis-sulfonato bis-propionamido-phenylarsine or Cy5 bis-propionamido-phenylarsine” value [6] was “bind” and the “interaction of tag with FlAsH-EDT2” value [4] was “do not interact substantially”.

With “CCPPPPPPCC (target sequence) [tetracysteine peptide tag of the form CC(P)nCC]” the “interaction of tag with FlAsH-EDT2” value [4] was “not interact substantially” and the “binding of tag to Cy3 and Cy5” value [5] was “bind”.
